From US6706663B2, “Herbicidal 3-heterocyclic substituted benzisothiazole and benzisoxazole compounds” (Wyeth, priority 2000, dated 2004)

Tests used:
[1] = system: ECHCG (Echinochloa crus-galli); assay: Postemergence herbicidal evaluation; format: in vivo, (L.) Beau; conditions: postemergence
Summary of the method: (§1)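 Seedlings grown for about two weeks were sprayed postemergence and then kept under standard greenhouse care. Injury was rated visually 4–5 weeks after treatment on a 0–9 scale against untreated controls, and ratings from repeat tests were averaged.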

SETVI (Setaria viridis) = assay: Postemergence herbicidal evaluation; format: in vivo, (L.) Beau; conditions: postemergence
Summary of the method: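 ~2-wk seedlings; spray 0.0040–1.000 kg/ha in 50/50 acetone/water + 0.5% TWEEN 20, 40 psi nozzle. Greenhouse hold; visual 0–9 rating vs control at 4–5 wk; multiple tests averaged.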

[2] = system: TRZAWR (Wheat, Winter, cv Riband); assay: Postemergence herbicidal evaluation; format: in vivo, Triticum aestivum; conditions: postemergence
Summary of the method: as §1

[3] = system: ABUTH (Abutilon theophrasti); assay: Preemergence herbicidal evaluation; format: in vivo, Medic.; conditions: rated 4-5 weeks after treatment
[4] = system: AMBEL (Ambrosia artemisifolia); assay: Preemergence herbicidal evaluation; format: in vivo, L.; conditions: rated 4-5 weeks after treatment
Summary of the method: (§2)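 Test compound is applied in aqueous acetone to cups just after seeding. Cups are watered and maintained on greenhouse benches. Each cup is scored 0–9 by eye relative to a control after four to five weeks.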

[5] = system: CASOB (Cassia obtusifolia); assay: Preemergence herbicidal evaluation; format: in vivo, L.; conditions: rated 4-5 weeks after treatment
Summary of the method: as §2

[6] = system: CHEAL (Chenopodium album); assay: Preemergence herbicidal evaluation; format: in vivo, L.; conditions: rated 4-5 weeks after treatment
Summary of the method: as §2

[7] = system: IPOHE (Ipomoea hederacea); assay: Preemergence herbicidal evaluation; format: in vivo, (L.) Jacq.; conditions: rated 4-5 weeks after treatment
[8] = system: GLXMAW (Soybean, Williams); assay: Preemergence herbicidal evaluation; format: in vivo, Glycine max, (L.) Merr. cv Williams; conditions: rated 4-5 weeks after treatment
ZEAMX (Corn, Field) = assay: Preemergence herbicidal evaluation; format: in vivo, Zea mays, L.; conditions: rated 4-5 weeks after treatment
[9] = system: ECHORC (Echinochloa oryzoides); assay: Flooded paddy, preemergence weed control; format: in vivo, Echinochloa oryzoides (Ard.) Fritsch.; conditions: rated 3-4 weeks after treatment, 0-9 rating scale
Summary of the method: (§3)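 Seeds or propagating organs were sown in the top 0.5 cm of silt loam soil, flooded, and the water kept 1.5 to 3 cm above the soil surface throughout. Plants were grown in the greenhouse and rated visually on a 0-9 scale against a control.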

CYPIR (Cyperus iria) = assay: Flooded paddy, preemergence weed control; format: in vivo; conditions: rated 3-4 weeks after treatment, 0-9 rating scale
Summary of the method: as §3

[10] = system: CYPSE (Cyperus serotinus); assay: Flooded paddy, preemergence weed control; format: in vivo, Rottb.; conditions: rated 3-4 weeks after treatment, 0-9 rating scale
Summary of the method: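 Herbicidal effect was scored visually on a 0–9 scale against an untreated control 3–4 weeks after treatment. Compounds were applied preemergence as 50/50 v/v aqueous/acetone mixtures into flood water (1.5–3 cm deep over silt loam), at roughly 0.0080 to 0.1250 kg/ha active ingredient.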

[11] = system: MOOVA (Monochoria vaginalis); assay: Flooded paddy, preemergence weed control; format: in vivo, Presl.; conditions: rated 3-4 weeks after treatment, 0-9 rating scale
Summary of the method: as §3

[12] = system: SAGPY (Sagittaria pygmaea); assay: Flooded paddy, preemergence weed control; format: in vivo, L.; conditions: rated 3-4 weeks after treatment, 0-9 rating scale
Summary of the method: as §3

ORYSAT (Rice, Tebonnet) = assay: Flooded paddy, post-transplant rice tolerance; format: in vivo, Oryza sativa, (L.) Tebonnet; conditions: flooded paddy, post-transplant rice, rated 3-4 weeks after treatment, 0-9 rating scale
Summary of the method: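 Visual 0–9 injury rating against a control, covering stand, vigor, malformation, size, chlorosis and overall appearance. Treatment was post-transplant onto flooded containers (water 1.5–3 cm deep, silt loam) holding two ten-day-old cv. Tebonnet seedlings, maintained on greenhouse benches.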

## Cn1c(C(F)(F)F)cc(=O)n(-c2ccc3snc(C4(C)OCCO4)c3c2)c1=O [Compound 54, 1-methyl-3-[3-(2-methyl-1,3-dioxolan-2-yl)-1,2-benzisothiazol-5-yl]-6-(trifluoromethyl)uracil]
[1]; rate 0.0320 kg/ha
  ECHCG herbicidal rating: 1.0
[1]; rate 0.0620 kg/ha
  ECHCG herbicidal rating: 3.0
[1]; rate 0.1250 kg/ha
  ECHCG herbicidal rating: 3.0
SETVI (Setaria viridis); rate 0.0320 kg/ha
  SETVI herbicidal rating: 3.0
SETVI (Setaria viridis); rate 0.0620 kg/ha
  SETVI herbicidal rating: 9.0
SETVI (Setaria viridis); rate 0.1250 kg/ha
  SETVI herbicidal rating: 8.0
[2]; rate 0.0320 kg/ha
  TRZAWR herbicidal rating: 5.0
[2]; rate 0.0620 kg/ha
  TRZAWR herbicidal rating: 6.5
[2]; rate 0.1250 kg/ha
  TRZAWR herbicidal rating: 7.5
[3]; Rate 0.0620 kg/ha
  Preemergence herbicidal rating ABUTH: 9.0
[3]; Rate 0.1250 kg/ha
  Preemergence herbicidal rating ABUTH: 9.0
[3]; Rate 0.2500 kg/ha
  Preemergence herbicidal rating ABUTH: 9.0
[4]; Rate 0.0620 kg/ha
  Preemergence herbicidal rating AMBEL: 9.0
[4]; Rate 0.1250 kg/ha
  Preemergence herbicidal rating AMBEL: 9.0
[4]; Rate 0.2500 kg/ha
  Preemergence herbicidal rating AMBEL: 9.0
[5]; Rate 0.0620 kg/ha
  Preemergence herbicidal rating CASOB: 9.0
[5]; Rate 0.1250 kg/ha
  Preemergence herbicidal rating CASOB: 9.0
[5]; Rate 0.2500 kg/ha
  Preemergence herbicidal rating CASOB: 9.0
[6]; Rate 0.0620 kg/ha
  Preemergence herbicidal rating CHEAL: 9.0
[6]; Rate 0.1250 kg/ha
  Preemergence herbicidal rating CHEAL: 9.0
[6]; Rate 0.2500 kg/ha
  Preemergence herbicidal rating CHEAL: 9.0
[7]; Rate 0.0620 kg/ha
  Preemergence herbicidal rating IPOHE: 9.0
[7]; Rate 0.1250 kg/ha
  Preemergence herbicidal rating IPOHE: 9.0
[7]; Rate 0.2500 kg/ha
  Preemergence herbicidal rating IPOHE: 9.0
[8]; Rate 0.0620 kg/ha
  Preemergence herbicidal rating GLXMAW: 9.0
[8]; Rate 0.1250 kg/ha
  Preemergence herbicidal rating GLXMAW: 9.0
[8]; Rate 0.2500 kg/ha
  Preemergence herbicidal rating GLXMAW: 9.0
ZEAMX (Corn, Field); Rate 0.0620 kg/ha
  Preemergence herbicidal rating ZEAMX: 8.0
ZEAMX (Corn, Field); Rate 0.1250 kg/ha
  Preemergence herbicidal rating ZEAMX: 8.5
ZEAMX (Corn, Field); Rate 0.2500 kg/ha
  Preemergence herbicidal rating ZEAMX: 9.0
[9]; rate 0.0080 kg/ha
  herbicidal rating, ECHORC: 8.0
[9]; rate 0.0320 kg/ha
  herbicidal rating, ECHORC: 8.0
[9]; rate 0.1250 kg/ha
  herbicidal rating, ECHORC: 9.0
CYPIR (Cyperus iria); rate 0.0080 kg/ha
  herbicidal rating, CYPIR: 0.0
CYPIR (Cyperus iria); rate 0.0320 kg/ha
  herbicidal rating, CYPIR: 7.5
CYPIR (Cyperus iria); rate 0.1250 kg/ha
  herbicidal rating, CYPIR: 9.0
[10]; rate 0.0320 kg/ha
  herbicidal rating, CYPSE: 9.0
[10]; rate 0.1250 kg/ha
  herbicidal rating, CYPSE: 9.0
[11]; rate 0.0320 kg/ha
  herbicidal rating, MOOVA: 9.0
[11]; rate 0.1250 kg/ha
  herbicidal rating, MOOVA: 9.0
[12]; rate 0.0080 kg/ha
  herbicidal rating, SAGPY: 0.0
[12]; rate 0.0320 kg/ha
  herbicidal rating, SAGPY: 7.0
[12]; rate 0.1250 kg/ha
  herbicidal rating, SAGPY: 9.0
ORYSAT (Rice, Tebonnet); rate 0.0080 kg/ha
  herbicidal rating, ORYSAT (rice tolerance): 7.0
ORYSAT (Rice, Tebonnet); rate 0.0320 kg/ha
  herbicidal rating, ORYSAT (rice tolerance): 8.5
ORYSAT (Rice, Tebonnet); rate 0.1250 kg/ha
  herbicidal rating, ORYSAT (rice tolerance): 9.0

## CC1CC(C)(C)OC(c2nsc3ccc(-n4c(=O)cc(C(F)(F)F)n(C)c4=O)cc23)O1 (centres unmarked) [Compound 55, 1-methyl-6-(trifluoromethyl)-3-[3-(4,4,6-trimethyl-m-dioxan-2-yl)-1,2-benzisothiazol-5-yl]uracil]
[1]; rate 0.0320 kg/ha
  ECHCG herbicidal rating: 1.0
[1]; rate 0.0620 kg/ha
  ECHCG herbicidal rating: 1.0
SETVI (Setaria viridis); rate 0.0320 kg/ha
  SETVI herbicidal rating: 1.0
SETVI (Setaria viridis); rate 0.0620 kg/ha
  SETVI herbicidal rating: 1.0
[2]; rate 0.0320 kg/ha
  TRZAWR herbicidal rating: 3.0
[2]; rate 0.0620 kg/ha
  TRZAWR herbicidal rating: 5.0
[3]; Rate 0.0620 kg/ha
  Preemergence herbicidal rating ABUTH: 9.0
[3]; Rate 0.1250 kg/ha
  Preemergence herbicidal rating ABUTH: 9.0
[3]; Rate 0.2500 kg/ha
  Preemergence herbicidal rating ABUTH: 9.0
[4]; Rate 0.0620 kg/ha
  Preemergence herbicidal rating AMBEL: 9.0
[4]; Rate 0.1250 kg/ha
  Preemergence herbicidal rating AMBEL: 9.0
[4]; Rate 0.2500 kg/ha
  Preemergence herbicidal rating AMBEL: 9.0
[5]; Rate 0.0620 kg/ha
  Preemergence herbicidal rating CASOB: 3.5
[5]; Rate 0.1250 kg/ha
  Preemergence herbicidal rating CASOB: 7.5
[5]; Rate 0.2500 kg/ha
  Preemergence herbicidal rating CASOB: 7.0
[6]; Rate 0.0620 kg/ha
  Preemergence herbicidal rating CHEAL: 9.0
[6]; Rate 0.1250 kg/ha
  Preemergence herbicidal rating CHEAL: 9.0
[6]; Rate 0.2500 kg/ha
  Preemergence herbicidal rating CHEAL: 9.0
[7]; Rate 0.0620 kg/ha
  Preemergence herbicidal rating IPOHE: 7.5
[7]; Rate 0.1250 kg/ha
  Preemergence herbicidal rating IPOHE: 7.5
[7]; Rate 0.2500 kg/ha
  Preemergence herbicidal rating IPOHE: 8.0
[8]; Rate 0.0620 kg/ha
  Preemergence herbicidal rating GLXMAW: 6.5
[8]; Rate 0.1250 kg/ha
  Preemergence herbicidal rating GLXMAW: 8.0
[8]; Rate 0.2500 kg/ha
  Preemergence herbicidal rating GLXMAW: 9.0
ZEAMX (Corn, Field); Rate 0.0620 kg/ha
  Preemergence herbicidal rating ZEAMX: 8.0
ZEAMX (Corn, Field); Rate 0.1250 kg/ha
  Preemergence herbicidal rating ZEAMX: 9.0
ZEAMX (Corn, Field); Rate 0.2500 kg/ha
  Preemergence herbicidal rating ZEAMX: 8.0
[9]; rate 0.0080 kg/ha
  herbicidal rating, ECHORC: 5.0
[9]; rate 0.0320 kg/ha
  herbicidal rating, ECHORC: 7.5
[9]; rate 0.1250 kg/ha
  herbicidal rating, ECHORC: 9.0
CYPIR (Cyperus iria); rate 0.0080 kg/ha
  herbicidal rating, CYPIR: 0.0
CYPIR (Cyperus iria); rate 0.0320 kg/ha
  herbicidal rating, CYPIR: 6.0
CYPIR (Cyperus iria); rate 0.1250 kg/ha
  herbicidal rating, CYPIR: 9.0
[10]; rate 0.0320 kg/ha
  herbicidal rating, CYPSE: 9.0
[10]; rate 0.1250 kg/ha
  herbicidal rating, CYPSE: 9.0
[11]; rate 0.0320 kg/ha
  herbicidal rating, MOOVA: 9.0
[11]; rate 0.1250 kg/ha
  herbicidal rating, MOOVA: 9.0
[12]; rate 0.0080 kg/ha
  herbicidal rating, SAGPY: 0.0
[12]; rate 0.0320 kg/ha
  herbicidal rating, SAGPY: 0.0
[12]; rate 0.1250 kg/ha
  herbicidal rating, SAGPY: 7.0
ORYSAT (Rice, Tebonnet); rate 0.0080 kg/ha
  herbicidal rating, ORYSAT (rice tolerance): 3.0
ORYSAT (Rice, Tebonnet); rate 0.0320 kg/ha
  herbicidal rating, ORYSAT (rice tolerance): 4.5
ORYSAT (Rice, Tebonnet); rate 0.1250 kg/ha
  herbicidal rating, ORYSAT (rice tolerance): 9.0
